Data reported in the NIST ThermoML archive (doi:10.1016/j.jct.2018.01.019).

Experiment: molar heat capacity at constant pressure
Conditions: 101.33 kPa, Crystal 2, Small sample (50 mg) DSC

O=[Si]=O [silicon dioxide]
Conditions	molar heat capacity at constant pressure [J/K/mol]
794.62 K	71.82
794.79 K	71.62
794.95 K	71.49
795.12 K	71.46
795.29 K	71.47
795.45 K	71.5
795.62 K	71.77
795.78 K	71.9
795.95 K	71.83
796.12 K	71.66
796.29 K	71.81
796.46 K	72.04
796.62 K	72.01
796.79 K	71.86
796.96 K	71.68
797.12 K	71.48
797.29 K	71.6
797.46 K	71.73
797.62 K	71.68
797.79 K	71.65
797.96 K	71.81
798.13 K	71.82
798.29 K	71.7
798.46 K	71.81
798.62 K	71.8
798.79 K	71.9
798.96 K	72.09
799.12 K	72
799.29 K	71.85
799.46 K	71.85
799.62 K	71.85
799.79 K	71.96
799.96 K	72.13
800.12 K	72.26
800.29 K	72.07
800.46 K	71.86
800.63 K	72
800.79 K	72.09
800.96 K	72.12
801.12 K	72.16
801.29 K	71.98
801.46 K	71.96
801.63 K	71.86
801.79 K	71.9
801.96 K	71.86
802.12 K	71.92
802.29 K	71.92
802.46 K	72.04
802.62 K	72.2
802.79 K	72.1
802.96 K	71.91
803.12 K	71.68
803.29 K	71.76
803.46 K	71.76
803.63 K	71.8
803.79 K	72.11
803.96 K	72.29
804.13 K	72.1
804.29 K	71.93
804.46 K	71.94
804.62 K	71.92
804.79 K	71.93
804.96 K	72.09
805.13 K	72.17
805.29 K	72.03
805.46 K	72.03
805.63 K	72
805.79 K	72.07
805.96 K	72.1
806.13 K	72.19
806.29 K	72.25
806.46 K	72.37
806.63 K	72.33
806.79 K	72.24
806.96 K	72.08
807.13 K	71.96
807.3 K	71.9
807.47 K	72.16
807.63 K	72.29
807.8 K	72.39
807.97 K	72.54
808.13 K	72.48
808.3 K	72.36
808.47 K	72.31
808.64 K	72.39
808.81 K	72.34
808.97 K	72.47
809.14 K	72.61
809.3 K	72.59
